From PubChem BioAssay AID248 (DTP/NCI, 2004)
Several values for one entry are separate records, joined by “and”; a condition that tells them apart may be missing. Equal entries are not always repeated. Toxic doses and inconclusive results are not listed. Cut-off read from the data, not from the text of the source: active = T/C of 150% or more; inactive = T/C below 125%.

System: L1210 leukemia ip in BDF1 mice, survival T/C
Assay: NCI In Vivo Anticancer Drug Screen. Data for tumor model L1210 Leukemia (intraperitoneal) in B6D2F1 (BDF1) mice
Conditions: endpoint: mean survival time, higher = longer survival
Outline: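 Value reflects the ratio of survival in compound-treated mice to survival in vehicle-treated controls, with both groups carrying the same transplanted tumor.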

[1] = dose: 100.0 mg/kg/injection, schedule: Q01DX001 (ip), vehicle: Klucel (hydroxypropylcellulose) (HPC)
[2] = dose: 100.0 mg/kg/injection, schedule: Q04DX002 (ip), vehicle: Klucel (hydroxypropylcellulose) (HPC)
[3] = dose: 200.0 mg/kg/injection, schedule: Q01DX001 (ip), vehicle: Klucel (hydroxypropylcellulose) (HPC)
[4] = dose: 200.0 mg/kg/injection, schedule: Q04DX002 (ip), vehicle: Klucel (hydroxypropylcellulose) (HPC)
[5] = dose: 400.0 mg/kg/injection, schedule: Q01DX001 (ip), vehicle: Klucel (hydroxypropylcellulose) (HPC)
[6] = dose: 400.0 mg/kg/injection, schedule: Q04DX002 (ip), vehicle: Klucel (hydroxypropylcellulose) (HPC)
[7] = dose: 100.0 mg/kg/injection, schedule: Q01DX001 (ip), vehicle: carboxymethylcellulose (CMC)
[8] = dose: 200.0 mg/kg/injection, schedule: Q01DX001 (ip), vehicle: carboxymethylcellulose (CMC)
[9] = dose: 50.0 mg/kg/injection, schedule: Q01DX001 (ip), vehicle: saline
[10] = dose: 100.0 mg/kg/injection, schedule: Q01DX001 (ip), vehicle: saline
[11] = dose: 200.0 mg/kg/injection, schedule: Q01DX001 (ip), vehicle: saline
[12] = dose: 100.0 mg/kg/injection, schedule: Q01DX009 (ip), vehicle: saline
[13] = dose: 100.0 mg/kg/injection, schedule: Q04DX003 (ip), vehicle: Klucel (hydroxypropylcellulose) (HPC)
[14] = dose: 200.0 mg/kg/injection, schedule: Q04DX003 (ip), vehicle: Klucel (hydroxypropylcellulose) (HPC)
[15] = dose: 400.0 mg/kg/injection, schedule: Q04DX003 (ip), vehicle: Klucel (hydroxypropylcellulose) (HPC)
[16] = dose: 12.5 mg/kg/injection, schedule: Q01DX009 (ip), vehicle: saline
[17] = dose: 25.0 mg/kg/injection, schedule: Q04DX003 (ip), vehicle: saline
[18] = dose: 50.0 mg/kg/injection, schedule: Q01DX009 (ip), vehicle: saline
[19] = dose: 50.0 mg/kg/injection, schedule: Q04DX003 (ip), vehicle: saline
[20] = dose: 100.0 mg/kg/injection, schedule: Q04DX003 (ip), vehicle: saline with Tween-80

Measured: T/C

CN(N=O)C(=O)NCCn1cnc2c(=S)nc[nH]c21
inactive: dose: 6.0 mg/kg/injection, schedule: Q01DX Z (ip), vehicle: carboxymethylcellulose (CMC) 95 % of control | dose: 12.0 mg/kg/injection, schedule: Q01DX Z (ip), vehicle: carboxymethylcellulose (CMC) 92 % of control | dose: 25.0 mg/kg/injection, schedule: Q01DX Z (ip), vehicle: carboxymethylcellulose (CMC) 109 % of control | dose: 50.0 mg/kg/injection, schedule: Q01DX Z (ip), vehicle: carboxymethylcellulose (CMC) 114 % of control | dose: 100.0 mg/kg/injection, schedule: Q01DX Z (ip), vehicle: carboxymethylcellulose (CMC) 104 % of control | dose: 150.0 mg/kg/injection, schedule: Q01DX Z (ip), vehicle: carboxymethylcellulose (CMC) 121 % of control

Clc1cccc(Cl)c1C[N+]12CN3CN(CN(C3)C1)C2
inactive: dose: 30.0 mg/kg/injection, schedule: Q01DX015 (ip), vehicle: saline 95 % of control | dose: 60.0 mg/kg/injection, schedule: Q01DX015 (ip), vehicle: saline 100 % of control | dose: 120.0 mg/kg/injection, schedule: Q01DX015 (ip), vehicle: saline 105 % of control

Cc1ccc(NC(=O)c2ccco2)cc1Cl
inactive: [1] 93 % of control | [2] 102 % of control | [3] 89 % of control | [4] 118 % of control | [5] 105 % of control | [6] 123 % of control

CCOC=Nc1cc(-n2cnc3c(Cl)ncnc32)ccc1C
inactive: [7] 87 % of control | [8] 98 % of control | dose: 400.0 mg/kg/injection, schedule: Q01DX001 (ip), vehicle: carboxymethylcellulose (CMC) 96 % of control

O=C(O)C(c1ccccc1)c1ccccc1
inactive: [1] 97 % of control | dose: 100.0 mg/kg/injection, schedule: Q04DX002 (ip), vehicle: saline 97 % of control | [3] 101 % of control | dose: 200.0 mg/kg/injection, schedule: Q04DX002 (ip), vehicle: saline 97 % of control | [5] 109 % of control | dose: 400.0 mg/kg/injection, schedule: Q04DX002 (ip), vehicle: saline 87 % of control

CCOC(=O)C(C(=O)OCC)c1cccc(Cl)c1
inactive: [9] 106 % of control | [10] 109 % of control | [11] 103 % of control | dose: 400.0 mg/kg/injection, schedule: Q01DX001 (ip), vehicle: saline 103 % of control

BrC=C=C1CCCCC1
inactive: [12] 98 % of control | dose: 200.0 mg/kg/injection, schedule: Q01DX009 (ip), vehicle: saline 93 % of control | dose: 400.0 mg/kg/injection, schedule: Q01DX009 (ip), vehicle: saline 95 % of control

O=C1OC(c2ccccc2)(C2(c3ccccc3)C=C(c3ccccc3)C(=O)O2)C=C1c1ccccc1 (stereo not drawn)
inactive: [1] 100 % of control | [13] 94 % of control | [3] 97 % of control | [14] 103 % of control | [5] 100 % of control | [15] 91 % of control

CCCCn1cnc(=O)c2[nH]cnc21
inactive: dose: 3.12 mg/kg/injection, schedule: Q01DX009 (ip), vehicle: saline 90 % of control | dose: 6.25 mg/kg/injection, schedule: Q01DX009 (ip), vehicle: saline 94 % of control | [16] 95 % of control | dose: 25.0 mg/kg/injection, schedule: Q01DX001 (ip), vehicle: saline 98 % of control | [17] 96 % of control | [9] 96 % of control | [18] 97 % of control | [19] 105 % of control | [10] 100 % of control | [12] 87 % of control | dose: 100.0 mg/kg/injection, schedule: Q04DX003 (ip), vehicle: saline 107 % of control

O=C1CC(C(c2ccccc2)c2ccccc2)CO1 (stereo not drawn)
inactive: [1] 104 % of control | dose: 100.0 mg/kg/injection, schedule: Q01DX009 (ip), vehicle: Klucel (hydroxypropylcellulose) (HPC) 110 % of control and 89 % of control | [2] 94 % of control and 99 % of control | [13] 94 % of control | [3] 100 % of control | dose: 200.0 mg/kg/injection, schedule: Q01DX009 (ip), vehicle: Klucel (hydroxypropylcellulose) (HPC) 113 % of control and 89 % of control | [4] 94 % of control and 96 % of control | [14] 94 % of control | [5] 98 % of control | dose: 400.0 mg/kg/injection, schedule: Q01DX009 (ip), vehicle: Klucel (hydroxypropylcellulose) (HPC) 116 % of control and 89 % of control | [6] 99 % of control and 101 % of control | [15] 95 % of control

COc1cc(NC(=O)Nc2cc(OC)c(OC)c(OC)c2)cc(OC)c1OC
inactive: [13] 96 % of control | [20] 93 % of control | [14] 98 % of control | [15] 91 % of control

C=CCOc1ccccc1C
inactive: [9] 98 % of control | [10] 95 % of control | [11] 97 % of control

N#CCC(NC(=O)OCc1ccccc1)C(=O)OCc1ccccc1 (stereo not drawn)
inactive: dose: 100.0 mg/kg/injection, schedule: Q01DX009 (ip), vehicle: saline with Tween-80 98 % of control | [20] 98 % of control | dose: 200.0 mg/kg/injection, schedule: Q01DX009 (ip), vehicle: saline with Tween-80 96 % of control | dose: 200.0 mg/kg/injection, schedule: Q04DX003 (ip), vehicle: saline with Tween-80 93 % of control | dose: 400.0 mg/kg/injection, schedule: Q01DX009 (ip), vehicle: saline with Tween-80 86 % of control | dose: 400.0 mg/kg/injection, schedule: Q04DX003 (ip), vehicle: saline with Tween-80 89 % of control

C=CCOB(OCC=C)OCC=C
inactive: [16] 120 % of control | dose: 25.0 mg/kg/injection, schedule: Q01DX009 (ip), vehicle: saline 101 % of control | [17] 97 % of control | [18] 106 % of control | [19] 103 % of control

C=C(C)[C@@H](/C=C/[C@@H](C)[C@H]1CC[C@H]2C3=CC[C@H]4C[C@@H](O)CC[C@]4(C)[C@H]3CC[C@]12C)CC
inactive: [7] 96 % of control | [8] 100 % of control

N#Cc1ccc(OCCCCCOc2ccc(C#N)cc2I)c(I)c1
inactive: dose: 25.0 mg/kg/injection, schedule: Q04DX002 (ip), vehicle: Klucel (hydroxypropylcellulose) (HPC) 100 % of control | dose: 50.0 mg/kg/injection, schedule: Q04DX002 (ip), vehicle: Klucel (hydroxypropylcellulose) (HPC) 100 % of control | [2] 95 % of control and 97 % of control | [4] 89 % of control | [6] 94 % of control

ClC1=C(Cl)C(Cl)(Cl)C1(Cl)Cl
inactive: dose: 75.0 mg/kg/injection, schedule: Q01DX001 (ip), vehicle: carboxymethylcellulose (CMC) 109 % of control

O=C(Nc1ccc(C2=NCCCCN2)cc1)c1ccc(C(=O)Nc2ccc(C3=NCCCCN3)cc2)c(Cl)c1
inactive: dose: 0.12 mg/kg/injection, schedule: Q01DX015 (ip), vehicle: water 101 % of control | dose: 0.25 mg/kg/injection, schedule: Q01DX015 (ip), vehicle: water 101 % of control | dose: 0.5 mg/kg/injection, schedule: Q01DX015 (ip), vehicle: water 100 % of control and 101 % of control | dose: 0.75 mg/kg/injection, schedule: Q01DX015 (ip), vehicle: water 103 % of control

CC(c1ccccc1)n1cncc1C(=O)N1CCOCC1 (stereo not drawn)
inactive: [2] 104 % of control | [4] 97 % of control | [6] 123 % of control
